{
  "source": "patent US6358975B1",
  "about": "“Method of using selective parp inhibitors to prevent or treat neurotoxicity” (Johns Hopkins University, priority 1997, dated 2002)",
  "key": {"[1]": {"tested_on": "infarct size in the heart", "details": "rabbits, cited from earlier work"}, "[2]": {"tested_on": "NMDA toxicity in cerebral cortical cultures", "assay": "NMDA toxicity in cortical cultures from wild-type, PARP+/− and PARP−/− mice (FIG. 2B)", "type": "cell-based", "details": "for effect on NMDA toxicity in wild-type and PARP+/− cultures / effect on NMDA toxicity in PARP−/− cultures: 500 μM NMDA, BZD 500 μM, DPQ 10 μM; for effect on NMDA toxicity in wild-type and PARP+/− cultures: five minutes, MK801 1 μM, NArg 100 μM; for effect on NMDA toxicity in PARP−/− cultures: L-Arg 1 mM", "protocol": "(§1) Mice were obtained having a targeted disruption of the PARP gene (PARP−/−), generated by the method of Wang et al., “Mice Lacking ADPRT and poly(ADP-ribosyl)ation Develop Normally But Are Susceptible to Skin Disease”, Genes Dev., 9:509-20 (1995), which is hereby incorporated by reference. The toxicity in cortical cultures elicited by a five-minute exposure to 500 μM NMDA, by 60 minutes of oxygen and glucose deprivation (OGD), and by NO-donors was evaluated, comparing cultures or cerebral cortical cells from wild-type and PARP−/− mice, as shown in FIG. 2A.\n(§2) Toxicity was assayed 20-24 hours after exposure to cytotoxic conditions by microscopic examination with computer-assisted cell counting, following staining of all nuclei with 1 μg/ml Hoescht 33342 and staining of dead cell nuclei with 7 μg/ml propidium iodide. All reagents were purchased from Sigma Chemicals, St. Louis, Mo.\n(§3) Both total and dead cells were counted. Glial nuclei fluoresce at a different intensity than neuronal nuclei and were gated out. The percentage of cell death was determined as the […], as compared to the percentage of cell death in control wells to account for cell death due to mechanical stimulation of the cultures. At least two separate experiments using four separate wells were performed. The results are shown in FIG. 2A, with a minimum of 15,000-20,000 neurons counted per data point, which represented the mean ± standard error of the mean (SEM)(n=8)."}, "[3]": {"biological_target": "poly(ADP-ribose) polymerase", "details": "read-out: IC50 for inhibiting PARP; reported by Suto et al.; cited from earlier work"}, "[4]": {"tested_on": "NMDA- or NO-induced neurotoxicity in primary cortical cell cultures", "assay": "Attenuation of NMDA- and NO (SNP)-induced neurotoxicity in primary cortical cell cultures (Example 1, FIG. 1)", "type": "cell-based, mice", "details": "for EC50: Mus musculus, read-out: protection against NMDA- or NO-induced neurotoxicity, EC50 (50% of maximal protection)", "protocol": "Primary cortical cell cultures were prepared from gestational, 16-day fetal mice in a procedure modified from the described in Dawson et al., “Resistance to Neurotoxicity in Cortical Cultures from Neuronal Nitric Oxide Synthase Deficient Mice”, J. Neurosci., 16:2479-87 (1996), the disclosure of which is hereby incorporated by reference. Specifically, the cortex was dissected, and the cortical cells were dissociated by a 30-minute digestion in 0.027% trypsin/saline solution (commercially available from Gibco BRL, Gaithersburg, Md.), followed by trituration in modified Eagle's medium (MEM), 20% horse serum, 25 mM glucose and 2 mM L-glutamine.\nThe cells were plated on 15 mm multi-well plates coated with polyornithine. Four days after plating, the cells were treated with 5-fluoro-2-deoxyuridine for three days to inhibit the proliferation of non-neuronal cells. The cells were then maintained in MEM, 10% horse serum, 25 mM glucose, and 2 mM L-glutamine in an 8% CO2, humidified 37° C. incubator. The growth medium was refreshed twice per week, and the neurons were allowed to mature for 14 days in culture before being used for experiments.\nBefore treatment, these critical cultures were washed with Tris buffered control salt solution (CSS) containing 120 mM NaCl, 5.4 mM KCl, 1.8 mM CaCl2, 25 mM Tris-HCl (pH 7.4) and 15 mM glucose. The washed cells were treated with NMDA or the NO-donor sodium nitroprusside (SNP) for five minutes and then washed again. The cells were then placed in growth media and returned to the incubator overnight.\nEach data point represented the mean ± standard error of the mean (SEM) (n=8) of at least two separate experiments and reflected a minimum of 16,000 neurons counted."}, "[5]": {"tested_on": "OGD toxicity in cortical cultures", "assay": "Oxygen-glucose deprivation (OGD) toxicity in cortical cultures (FIG. 2C)", "type": "cell-based, mice", "details": "60 minutes OGD, MK801 10 μM, NArg 100 μM, L-arginine 1 mM, benzamide 500 μM; for effect on OGD toxicity in wild-type and PARP+/− cultures: DPQ 10 μM", "protocol": "See Dawson et al., “Resistance to Neurotoxicity in Cortical Cultures from Neuronal Nitric Oxide Synthase Deficient Mice”, J. Neurosci., 16:2479-87 (1996), the disclosure of which is hereby incorporated by reference. Combined OGD was performed as described in Kaku et al., “Antagonism by non-NMDA Receptors Augments the Neuroprotective Effect of NMDA Receptor Blockage in Cortical Cultures Subjected to Prolonged Deprivation of Oxygen and Glucose”, Brain Res., 554:344-47 (1991) and/or Monyer et al., “Oxygen or Glucose Deprivation-induced Neuronal Injury in Cortical Cell Cultures is Reduced by Tetanus Toxin, Neuron, 8:967-73 (1992), both of which are hereby incorporated by reference.\nSpecifically, the culture media was completely exchanged with deoxygenated, glucose-free Earle's balanced salt solution (EBSS) containing: 116 mM NaCl, 5.4 mM KCl, 0.8 mM MgSO4, 1 mM NaH2PO4, and 0.9 mM CaCl2, bubbled with 5% H2/85% N2/5% CO2. The cultures were kept in a 37° C., anaerobic chamber for 60 minutes containing the gas mixture 5% H2/85% N2/5% CO2. Combined oxygen-glucose deprivation was terminated by removal of the cultures from the chamber and replacement of the EBSS solution with oxygenated growth media. The cultures were returned to a humidified incubator containing 5% CO2 and atmospheric oxygen at 37° C. overnight.\nas §2, §3"}, "[6]": {"tested_on": "toxicity elicited by the NO-donor SNP in cortical cultures", "assay": "SNP (NO-donor) toxicity in cortical cultures from wild-type, PARP+/− and PARP−/− mice", "type": "cell-based", "protocol": "as §1, §2\nas §3, with “At least two separate experiments using four separate wells were performed.” left out"}, "[7]": {"tested_on": "NMDA toxicity in cerebral cortical cultures", "details": "concentration of 100 μM; Zhang et al. 1994; cited from earlier work"}, "PARP": {"biological_target": "T1, PARP (Mus musculus, UniProt P11103)", "T1 construct": "from tissue; host or cells: mouse brain (forebrain) nuclear fraction, wild-type 129/SV", "T1 sequence (P11103 whole entry)": "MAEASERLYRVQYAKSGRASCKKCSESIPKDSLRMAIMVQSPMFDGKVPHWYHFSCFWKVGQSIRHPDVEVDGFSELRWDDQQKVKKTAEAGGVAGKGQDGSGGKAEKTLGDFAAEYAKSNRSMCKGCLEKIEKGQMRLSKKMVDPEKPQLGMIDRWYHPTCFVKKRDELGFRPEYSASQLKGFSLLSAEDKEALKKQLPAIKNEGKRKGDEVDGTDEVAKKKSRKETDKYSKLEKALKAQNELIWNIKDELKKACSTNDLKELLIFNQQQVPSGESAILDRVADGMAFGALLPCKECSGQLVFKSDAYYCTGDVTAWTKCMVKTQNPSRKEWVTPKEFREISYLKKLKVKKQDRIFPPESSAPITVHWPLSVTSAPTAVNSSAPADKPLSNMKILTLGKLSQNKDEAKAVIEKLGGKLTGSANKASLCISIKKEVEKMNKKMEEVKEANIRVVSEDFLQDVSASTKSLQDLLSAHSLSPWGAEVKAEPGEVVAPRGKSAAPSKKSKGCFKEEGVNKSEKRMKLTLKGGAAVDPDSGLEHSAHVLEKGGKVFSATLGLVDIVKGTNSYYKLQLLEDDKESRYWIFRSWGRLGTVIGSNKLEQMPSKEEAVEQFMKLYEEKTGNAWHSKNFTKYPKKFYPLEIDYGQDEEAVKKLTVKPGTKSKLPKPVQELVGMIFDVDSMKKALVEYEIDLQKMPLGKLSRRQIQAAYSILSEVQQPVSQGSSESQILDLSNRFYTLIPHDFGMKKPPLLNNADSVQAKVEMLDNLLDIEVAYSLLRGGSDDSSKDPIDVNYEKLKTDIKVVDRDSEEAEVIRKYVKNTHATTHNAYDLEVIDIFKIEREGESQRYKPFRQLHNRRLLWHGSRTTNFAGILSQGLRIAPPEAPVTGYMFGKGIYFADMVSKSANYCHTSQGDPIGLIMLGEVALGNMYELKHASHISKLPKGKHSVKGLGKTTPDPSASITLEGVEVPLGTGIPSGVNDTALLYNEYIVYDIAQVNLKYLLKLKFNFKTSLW", "assay": "PARP catalytic (self-modification) assay, mouse brain nuclear fraction", "type": "biochemical", "details": "benzamide treatment"}},
  "note": "Like-named read-outs stand apart in the source and are kept apart here.",
  "data": [
    {"smiles": "Oc1cccc2c(O)nccc12", "note": "[1,5-dihydroxyisoquinoline]", "values": [
      {"measurement": "reduction in infarct size", "setting": "[1]; 1 mg/kg", "value": "38-48%"}
    ]},
    {"smiles": "NC(=O)c1cccc(N)c1", "note": "[3-aminobenzamide]", "values": [
      {"measurement": "reduction in infarct size in the heart", "setting": "[1]; single injection 10 mg/kg one minute before occlusion or one minute before reperfusion", "value": "32-42%"}
    ]},
    {"smiles": "O=C1NCCc2c(OCCCCN3CCCCC3)cccc21", "note": "[DPQ, 3,4-dihydro-5-[4-(1-piperidinyl)-butoxy]-1(2H)-isoquinolinone]", "values": [
      {"measurement": "effect on NMDA toxicity in wild-type and PARP+/− cultures", "setting": "[2]", "value": "significantly greater reduction of NMDA toxicity than benzamide"},
      {"measurement": "effect on NMDA toxicity in PARP−/− cultures", "setting": "[2]", "value": "no significant effects"},
      {"measurement": "IC50", "setting": "[3]", "value": 40, "unit": "nM"},
      {"measurement": "potency relative to benzamide", "setting": "[4]; DPQ vs benzamide", "value": 500, "unit": "times"},
      {"measurement": "EC50", "setting": "[4]; five-minute exposure to 500 μM NMDA or 500 μM SNP", "value": 200, "unit": "nM"},
      {"measurement": "effect on neurotoxicity at 10-100 μM", "setting": "[4]; concentrations of 10-100 μM", "value": "virtually abolished neurotoxicity"},
      {"measurement": "effect on OGD toxicity in wild-type and PARP+/− cultures", "setting": "[5]", "value": "abolished OGD toxicity"},
      {"measurement": "effect on SNP toxicity in PARP−/− cultures", "setting": "[6]", "value": "no effect"},
      {"measurement": "effect on SNP toxicity in wild-type and PARP+/− cultures", "setting": "[6]; not shown in FIG. 2", "value": "reduced the toxicity"}
    ]},
    {"smiles": "N=C(N)NCCC[C@H](N)C(=O)O", "note": "[L-arginine]", "values": [
      {"measurement": "effect on NMDA toxicity in PARP−/− cultures", "setting": "[2]", "value": "no significant effect"},
      {"measurement": "reversal of nitroarginine neuroprotection against NMDA toxicity in wild-type cultures", "setting": "[2]; L-Arg 1 mM with NArg 100 μM", "value": "reversed the neuroprotective effect of nitroarginine"},
      {"measurement": "effect on OGD toxicity in PARP−/− cultures", "setting": "[5]", "value": "not in PARP−/− cultures"},
      {"measurement": "effect on OGD toxicity in wild-type and PARP+/− cultures", "setting": "[5]", "value": "reversed the nitroarginine protection"}
    ]},
    {"smiles": "C[C@]12N[C@H](Cc3ccccc31)c1ccccc12", "note": "[MK801]", "values": [
      {"measurement": "effect on NMDA toxicity in wild-type and PARP+/− cultures", "setting": "[2]", "value": "abolished NMDA toxicity"},
      {"measurement": "effect on OGD toxicity in PARP−/− cultures", "setting": "[5]", "value": "no differential effects"},
      {"measurement": "effect on OGD toxicity in wild-type and PARP+/− cultures", "setting": "[5]", "value": "profoundly reduced toxicity"}
    ]},
    {"smiles": "NC(=O)c1ccccc1", "note": "[benzamide]", "values": [
      {"measurement": "protection against NMDA neurotoxicity", "setting": "[7]", "value": "~50", "unit": "%"},
      {"measurement": "effect on NMDA toxicity in wild-type and PARP+/− cultures", "setting": "[2]", "value": "reduced NMDA toxicity"},
      {"measurement": "effect on NMDA toxicity in PARP−/− cultures", "setting": "[2]", "value": "no significant effect"},
      {"measurement": "reduction of neurotoxicity at the maximally effective concentration", "setting": "[4]; 500 μM NMDA or 500 μM SNP, maximally effective concentration", "value": 65, "unit": "%"},
      {"measurement": "EC50", "setting": "[4]", "value": "~100000", "unit": "nM"},
      {"measurement": "effect on OGD toxicity in PARP−/− cultures", "setting": "[5]", "value": "no influence"},
      {"measurement": "effect on OGD toxicity in wild-type and PARP+/− cultures", "setting": "[5]", "value": "reduced OGD toxicity"},
      {"measurement": "other ribosylated nuclear proteins (gray background) in wild-type catalytic assay", "setting": "PARP", "value": "reduced"}
    ]}
  ]
}
